Results on twelve molecules are retold here after PubChem BioAssay (NCI).

Structures are written as SMILES.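 Dose response: 5 concentrations. Exposure: 48 h. Format: 96-well plates. Endpoint: linear interpolation; highest concentration if not reached. Here, GI50 denotes the concentration required for 50% inhibition of growth. The concentration for full growth arrest is given as TGI.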 *1 amine or outer side, *2 acyl side, *3 side chain or, on linkers, in order; H or OH if unused. Where a SMILES comes first, the peptide text is derived from it. [ ]: non-standard residue; d: D form. ξ: configuration not given here. X21 = CC[C@@H](C)C(N[*:1])C(=O)[*:2]; ξR = N=C(N)NCCCC(N)C(=O)O; ξI = CCC(C)C(N)C(=O)O; ξL = CC(C)CC(N)C(=O)O; ξK = NCCCCC(N)C(=O)O; ξV = CC(C)C(N)C(=O)O; ξA = CC(N)C(=O)O

Assay in all cases: NCI anticancer screen, dose series, 48 h
The subject of test [1] is HOP-92 NSCLC.
Test [2] deals with ACHN renal.
In test [3] the test system is SNB-75 CNS.
Test [4] has as its system SK-MEL-5 melanoma.
Test [5] has as its system HCT-116 colon.
The subject of test [6] is SF-539 CNS.
The subject of test [7] is HT29 colon.
Test [8] concerns MDA-MB-231 breast.
In test [9] the test system is HOP-62 NSCLC.
Test [10] deals with SN12C renal.

On to `NC1CCC(N[C@@H]2C[C@H]2c2ccccc2)CC1` (stereo not given in full), for which the GI50 in test [1] is 5.47 µM; in [2], > 100 µM; in [3], 8.89 µM; in [4], > 100 µM; in test [5], > 100 µM; in test [6], 15.3 µM. Besides, the GI50 in test [7] is 40.1 µM; in [8] it was 23 µM; in test [9], 95.4 µM; in test [10] it was > 100 µM. Further, the TGI in test [1] is > 100 µM; in test [2] it was > 100 µM; in test [3], > 100 µM; in [4] it was > 100 µM; in [5], > 100 µM; in [6], 52 µM. In addition, the TGI in test [7], in test [8], in test [9] and in test [10] was > 100 µM each time.
Turning to `O=C(Nc1ccccc1)Nc1cccc(Oc2nnc(Cl)c3ccccc23)c1`, the GI50 in test [1] was 3.09 µM; in test [2], 3.47 µM; in test [3], 1.08 µM; in [4] it was 4.56 µM; in test [5] it was 3.06 µM; in [6], 2.81 µM. For the same molecule, the GI50 in test [7] was 5.26 µM; in test [8] it was 4.76 µM; in [9], 2.52 µM; in test [10], 6.72 µM. The TGI was found to be 11.3 µM in test [1]; 18.7 µM in [2]; 5.9 µM in test [3]; 18.6 µM in test [4]; 9.77 µM in [5]; 6.4 µM in test [6]. The TGI in [7] is > 25 µM; in test [8], 12.3 µM; in test [9] it was 6.54 µM; in test [10] it was > 25 µM.
On to `CC1(C)CC(Nc2ccc(Nc3ccccc3)cc2)CC(C)(C)N1`, for which the TGI is 33.9 µM in [1]; 37.2 µM in test [2]; > 100 µM in test [3]; 30.5 µM in test [4]; 62.3 µM in test [5]; 41.9 µM in test [6]. For the same molecule, the TGI in test [7] worked out at 50.7 µM; in [8], 32.4 µM; in test [9] it was 77.3 µM; in test [10], 80.6 µM.
Regarding `CCCN(CCSSCCNc1nc(N(C)O)nc(N(C)O)n1)c1nc(N(C)O)nc(N(C)O)n1`, the GI50 in test [1] is 6.1 µM; in test [2] it was 3.92 µM; in [3], 24.4 µM; in test [4] it was 8.65 µM; in [5], 3.97 µM; in test [6] it was 4.05 µM. Also, the GI50 in test [7] is 7.81 µM; in [8] it was 18.5 µM; in test [9], 4.49 µM; in [10] it was 9.84 µM. For the same molecule, the TGI in test [1], in [2], in [3], in [4], in [5] and in test [6] was > 100 µM in each case. Moreover, the TGI in test [7], in [8], in test [9] and in test [10] was > 100 µM in each case.
For `COc1ccc2c(c1)/C(=N/OC(C)=O)c1c-2c(=O)[nH]c2ccccc12`, the GI50 in [1] is 11.1 µM; in [2], 14.2 µM; in test [3], 11.1 µM; in [4], 5.79 µM; in test [5], 3.35 µM; in test [6], 16.9 µM. Moreover, the GI50 in test [7] is 15.6 µM; in test [8] it was 13 µM; in [9], 18 µM; in test [10], 16.2 µM. In addition, the TGI was 38.3 µM in test [1]; 28.2 µM in [2]; 25.9 µM in test [3]; 19.4 µM in [4]; 12.4 µM in test [5]; 46.4 µM in test [6]. Also, the TGI in [7] amounted to 32.8 µM; in test [8], 27.3 µM; in test [9] it was 34.4 µM; in test [10], 31 µM.
With `OCC(O)C(O)C(O)/C=N/Nc1nc2ccccc2nc1-c1ccccc1` (stereo not given), the GI50 is 60.1 µM in test [1]; > 100 µM in test [2]; > 100 µM in test [3]; 48.5 µM in [4]; > 100 µM in test [5]; 20.5 µM in test [6]. Further, the GI50 in test [7] was > 100 µM; in test [8] it was 64.1 µM; in test [9], > 100 µM; in [10] it was > 100 µM. In addition, the TGI in [1], in [2], in test [3], in test [4], in test [5] and in [6] was > 100 µM throughout. Further, the TGI in [7], in test [8], in test [9] and in test [10] was > 100 µM each time.
Regarding `CN1CCN(c2ccc(C(=O)Nc3cc(-c4cccc(NS(=O)(=O)c5ccccc5)c4)[nH]n3)cc2)CC1`, the GI50 is 2.54 µM in test [1]; 7.6 µM in test [2]; 1.61 µM in test [3]; 4.17 µM in [4]; 4.68 µM in test [5]; 1.79 µM in test [6]. For the same molecule, the GI50 was 3.51 µM in test [7], 3.53 µM in test [8], 6.61 µM in test [9] and 7.82 µM in test [10]. In addition, the TGI in [1] is 16.2 µM; in test [2], 26.7 µM; in test [3], 11.1 µM; in test [4], 9.23 µM; in test [5], 17.4 µM; in test [6], 9.57 µM. The TGI in test [7] amounted to 14.6 µM; in test [8], 12.2 µM; in [9], 30.2 µM; in test [10], 24 µM.
On to `COc1ccc2c(c1)/C(=C/c1cc(OC)c(OC)c(OC)c1)C(=O)N2C`, for which the GI50 in test [1] is 3.01 µM; in test [2], 3.6 µM; in [3], 2.29 µM; in test [4], 2.76 µM; in test [5] it was 2.56 µM; in test [6] it was 2.21 µM. Moreover, the GI50 in test [7] is 2.9 µM; in test [8], 2.81 µM; in test [9], 4.63 µM; in test [10] it was 3.44 µM. Besides, the TGI in test [1] was > 100 µM; in [2] it was > 39.5 µM; in [3], > 21.4 µM; in [4], 12.6 µM; in test [5], 13.3 µM; in [6], 5.92 µM. The TGI was > 88.1 µM in test [7], > 27.1 µM in [8], 97.6 µM in [9] and > 44.5 µM in [10].
For `COc1cc(OC)c(C(=O)/C=C/c2cccc(OC(C)=O)c2)cc1CC=C(C)C`, the GI50 was 8.52 µM in [1]; 10.1 µM in [2]; 4.68 µM in test [3]; 6.47 µM in test [4]; 3 µM in [5]; 8.62 µM in test [6]. For the same molecule, the GI50 was 5.92 µM in test [7], 13.1 µM in [8], 10.4 µM in [9] and 9.87 µM in test [10]. Moreover, the TGI in [1] was 39.8 µM; in [2] it was 29.2 µM; in test [3], 11.8 µM; in [4], 13.3 µM; in [5], 9.78 µM; in test [6], 16.2 µM. Moreover, the TGI in test [7] was 17.3 µM; in test [8], > 50 µM; in test [9], 19.6 µM; in test [10], > 50 µM.
On to `CCC(C)C1NC(=O)C(CC(C)C)NC(=O)C(C)NC(=O)C(C(C)C)NC(=O)C(CCCCN)NC(=O)C(CC(C)C)NC(=O)C(C(C)C)NC(=O)[C@H](C)NC(=O)C(C(C)CC)NC(=O)C(CCCN=C(N)N)NC(=O)C(CCCCN)NC(=O)C(CCCN=C(N)N)NC(=O)C(CCCCN)NC(=O)C([C@H](C)CC)NC(=O)C(CCCCN)NC1=O` (stereo not given in full) (cyclo(A[ξV][ξL][ξK][ξV][ξA][ξL][ξI][ξK][X21][ξK][ξR][ξK][ξR][ξI])), for which the GI50 is 1.14 µM in [1]; 1.79 µM in test [2]; 1.34 µM in [3]; 0.6 µM in [4]; 1.35 µM in [5]; 1.84 µM in test [6]. For the same molecule, the GI50 in [7] was 2.59 µM; in [8], 1.62 µM; in [9], 1.7 µM; in [10], 1.37 µM. Further, the TGI in test [1] amounted to 2.91 µM; in [2], 4.5 µM; in test [3], 3.24 µM; in [4] it was 1.87 µM; in test [5], 2.84 µM; in test [6], 3.61 µM. Also, the TGI in test [7] came out at 10.3 µM; in [8], 3.73 µM; in [9], 4.18 µM; in test [10], 3.32 µM.
Turning to `Cc1cc(=O)oc2cc(OS(C)(=O)=O)ccc12`, the TGI in [1], in test [2], in test [3], in [4], in test [5] and in test [6] was > 100 µM each time. The TGI in test [7], in [8], in [9] and in [10] was > 100 µM each time.
As to `COc1ccc2c(c1)C1(C(=O)N2)C(C#N)=C(c2ccccc2)Nc2c1c(-c1ccccc1)nn2-c1ccccc1` (stereo not given), the GI50 in test [1] is 2.34 µM; in test [2], 6.16 µM; in [3] it was 1.39 µM; in test [4], 2.4 µM; in test [5] it was 1.66 µM; in [6], 1.75 µM. For the same molecule, the GI50 is 2.34 µM in [7], 2.33 µM in [8], 2.28 µM in [9] and 1.94 µM in test [10]. The TGI was 6.34 µM in [1]; 19.4 µM in test [2]; 3.43 µM in [3]; 6.62 µM in test [4]; 3.02 µM in test [5]; 3.65 µM in test [6]. Moreover, the TGI in [7] is 5.82 µM; in [8], 5.81 µM; in test [9], 7.07 µM; in [10], 3.71 µM.
